Reference: PubChem BioAssay AID328 (DTP/NCI, 2004)
Inconclusive results and toxic doses are left out.

Tested on: BDF1 mice, P388 leukemia ip, median survival T/C
Experiment: NCI In Vivo Anticancer Drug Screen. Data for tumor model P388 Leukemia (intraperitoneal) in B6D2F1 (BDF1) mice
Conditions: endpoint: median survival time, higher = longer survival
Outline: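 Reported as T/C, where T is the survival measurement in dosed animals and C the same measurement in vehicle controls.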

[1] = dose: 400.0 mg/kg/injection, schedule: Q04DX003 (ip), vehicle: saline with Tween-80
[2] = dose: 100.0 mg/kg/injection, schedule: Q01DX009 (ip), vehicle: saline with Tween-80
[3] = dose: 12.5 mg/kg/injection, schedule: Q01DX009 (ip), vehicle: saline
[4] = dose: 25.0 mg/kg/injection, schedule: Q04DX003 (ip), vehicle: saline
[5] = dose: 50.0 mg/kg/injection, schedule: Q01DX009 (ip), vehicle: saline
[6] = dose: 50.0 mg/kg/injection, schedule: Q04DX003 (ip), vehicle: saline
[7] = dose: 100.0 mg/kg/injection, schedule: Q04DX003 (ip), vehicle: saline

CC(C)CCOP(=S)(N1CC1)N1CC1
T/C [1]: 177 % of control

S=c1nc[nH]c2c1ncn2C1CCCO1 (stereo not given)
T/C (dose: 50.0 mg/kg/injection, schedule: Q01DX009 (ip), vehicle: saline with Tween-80): 95 % of control
T/C [2]: 118 % of control

CS(=O)(=O)Nc1cc(Cl)c(NS(C)(=O)=O)c(Cl)c1Cl
T/C (dose: 100.0 mg/kg/injection, schedule: Q01DX001 (ip), vehicle: saline with Tween-80): 100 % of control
T/C (dose: 200.0 mg/kg/injection, schedule: Q01DX001 (ip), vehicle: saline with Tween-80): 103 % of control
T/C (dose: 400.0 mg/kg/injection, schedule: Q01DX001 (ip), vehicle: saline with Tween-80): 100 % of control

COc1cc2ccc3ccncc3c2cc1OC
T/C [3]: 95 % of control
T/C (dose: 25.0 mg/kg/injection, schedule: Q01DX009 (ip), vehicle: saline): 100 % of control
T/C [4]: 95 % of control
T/C [5]: 90 % of control
T/C [6]: 113 % of control
T/C [7]: 86 % of control

CCC1(O)C2CCCC1CCC2 (stereo not given)
T/C (dose: 100.0 mg/kg/injection, schedule: Q01DX009 (ip), vehicle: other): 100 % of control
T/C (dose: 100.0 mg/kg/injection, schedule: Q04DX003 (ip), vehicle: Klucel (hydroxypropylcellulose) (HPC)): 100 % of control
T/C (dose: 200.0 mg/kg/injection, schedule: Q01DX009 (ip), vehicle: other): 109 % of control
T/C (dose: 200.0 mg/kg/injection, schedule: Q04DX003 (ip), vehicle: Klucel (hydroxypropylcellulose) (HPC)): 108 % of control
T/C (dose: 400.0 mg/kg/injection, schedule: Q01DX009 (ip), vehicle: other): 113 % of control
T/C (dose: 400.0 mg/kg/injection, schedule: Q04DX003 (ip), vehicle: Klucel (hydroxypropylcellulose) (HPC)): 100 % of control

CCCCCCOc1ccc(OCCCC[N+]2(CC)CCCCC2)cc1
T/C (dose: 6.25 mg/kg/injection, schedule: Q01DX009 (ip), vehicle: saline): 103 % of control
T/C [3]: 110 % of control

CC(C)CCS(=O)(=O)OCCCCOS(=O)(=O)CCC(C)C
T/C [2]: 114 % of control
T/C (dose: 100.0 mg/kg/injection, schedule: Q04DX003 (ip), vehicle: saline with Tween-80): 100 % of control
T/C (dose: 200.0 mg/kg/injection, schedule: Q01DX009 (ip), vehicle: saline with Tween-80): 109 % of control
T/C (dose: 200.0 mg/kg/injection, schedule: Q04DX003 (ip), vehicle: saline with Tween-80): 100 % of control
T/C (dose: 400.0 mg/kg/injection, schedule: Q01DX009 (ip), vehicle: saline with Tween-80): 114 % of control
T/C [1]: 104 % of control

c1ccc(-c2cscc2-c2ccccc2)cc1
T/C [4]: 97 % of control
T/C [5]: 93 % of control
T/C [6]: 108 % of control
T/C (dose: 100.0 mg/kg/injection, schedule: Q01DX009 (ip), vehicle: saline): 93 % of control
T/C [7]: 100 % of control
T/C (dose: 200.0 mg/kg/injection, schedule: Q01DX009 (ip), vehicle: saline): 101 % of control
T/C (dose: 400.0 mg/kg/injection, schedule: Q01DX009 (ip), vehicle: saline): 93 % of control
T/C (dose: 400.0 mg/kg/injection, schedule: Q04DX003 (ip), vehicle: saline): 100 % of control

CC(C)S(=O)(=O)/C(Cl)=C(/Cl)C(Cl)=C(Cl)Cl
T/C (dose: 13.0 mg/kg/injection, schedule: Q01DX009 (ip), vehicle: Klucel (hydroxypropylcellulose) (HPC)): 100 % of control
T/C (dose: 20.0 mg/kg/injection, schedule: Q01DX009 (ip), vehicle: Klucel (hydroxypropylcellulose) (HPC)): 100 % of control
T/C (dose: 30.0 mg/kg/injection, schedule: Q01DX009 (ip), vehicle: Klucel (hydroxypropylcellulose) (HPC)): 95 % of control

CC1CN(Cc2cccc(C#N)c2)CC(C)N1 (stereo not given)
T/C (dose: 6.25 mg/kg/injection, schedule: Q01DX009 (ip), vehicle: water): 95 % of control
T/C (dose: 12.5 mg/kg/injection, schedule: Q01DX009 (ip), vehicle: water): 110 % of control
T/C (dose: 25.0 mg/kg/injection, schedule: Q01DX009 (ip), vehicle: water): 101 % of control
T/C (dose: 25.0 mg/kg/injection, schedule: Q04DX003 (ip), vehicle: water): 101 % of control
T/C (dose: 50.0 mg/kg/injection, schedule: Q01DX009 (ip), vehicle: water): 95 % of control
T/C (dose: 50.0 mg/kg/injection, schedule: Q04DX003 (ip), vehicle: water): 100 % of control
T/C (dose: 100.0 mg/kg/injection, schedule: Q01DX009 (ip), vehicle: water): 110 % of control
T/C (dose: 100.0 mg/kg/injection, schedule: Q04DX003 (ip), vehicle: water): 111 % of control
